{"source": "patent US7351695B2", "about": "“Topiramate salts and compositions comprising and methods of making and using the same” (Ortho-McNeil Pharmaceuticals, Inc., priority 2002, dated 2008)", "key": {"[1]": {"assay": "Oral pharmacokinetics in rats, capsules by gavage, plasma by LC/MS/MS", "type": "in vivo, male Sprague-Dawley rats", "conditions": "rat"}, "[2]": {"assay": "pH of an aqueous solution (pH meter)", "type": "physicochemical", "conditions": "400 mg/mL solution in distilled water"}, "[3]": {"assay": "Estimation of solubility: minimum solvent needed to dissolve a known amount", "type": "physicochemical", "conditions": "for Solubility (amount of solid in mL of solvent): sodium trihydrate", "procedure": "The solubility of the topiramate sodium trihydrate prepared in this example in water, ethanol, methanol, and THF was estimated by determining the minimum amount of solvent necessary to dissolve a known amount of the compound. In general, a predetermined amount of the compound was placed in a small glass vial, and then solvent was added drop-wise at room temperature until no visible solid remained in the vial."}, "[4]": {"assay": "Chemical stability by HPLC analysis of stored samples", "type": "physicochemical"}, "[5]": {"assay": "Dissolution curves in 0.01 N HCl", "type": "physicochemical", "conditions": "for state at the end of the dissolution experiment: nominal about 110 mM (37 mg/mL free acid concentration)", "from_the_text": "FIG. 6 provides results of a comparison between the aqueous solubility of topiramate sodium trihydrate with that of topiramate. […] Independently, a set of dissolution curves were obtained in 0.01 N HCl (representative of a modestly acidic stomach), and these are shown in FIG. 7."}, "[6]": {"assay": "Physical stability by TGA and PXRD at preset temperature and relative humidity", "type": "physicochemical", "conditions": "for Physical stability result (solid form): 2 weeks", "procedure": "A further study on physical stability of a sample from this example was conducted in glass vials at preset temperatures and controlled relative humidities. The humidities stored at room temperature were controlled using saturated salt solutions (see H. Nyquist, Pharm. Tech. 4(2):47-48 (1983)). At other temperatures, the oven configurations allowed humidity control. After 2 weeks, samples at various conditions were tested by TGA and PXRD to assess whether the crystalline topiramate sodium trihydrate remained intact or not. The data in Table 3 summarize findings after 2 weeks of incubation."}, "kindled seizures": {"tested_on": "kindled seizures", "conditions": "rats; cited from earlier work"}, "[7]": {"conditions": "in vivo; cited from earlier work"}, "[8]": {"conditions": "cited from earlier work"}, "[9]": {"conditions": "nominal concentration about 110 mM"}}, "note": "“And” between values parts separate entries of the source, which are not always exact repeats. Equal entries are not always repeated. Where two headings read alike, the source gives them in different places."}
{"smiles": "CC1(C)O[C@@H]2[C@@H](CO[C@@]3(COS(N)(=O)=O)OC(C)(C)O[C@@H]23)O1", "note": "[topiramate sodium trihydrate]", "values": [{"measurement": "Tmax", "setting": "[1]; male, Sprague-Dawley, plasma, oral capsule, 30 mg/kg free topiramate equivalent, first time point, read-out: time of peak plasma concentration (tmax)", "value": 30, "unit": "min"}, {"measurement": "plasma profile, comparison in words", "setting": "[1]; oral, 30 mg/kg, FIG. 10", "value": "comparable to an oral solution of TOPAMAX®"}, {"measurement": "pH of solution", "setting": "[2]", "value": "about 11.2"}, {"measurement": "solubility", "setting": "[3]; THF, room temperature (slight overestimate), read-out: Solubility (amount of solid in mL of solvent)", "value": 44.2, "unit": "mg/mL"}, {"measurement": "solubility", "setting": "[3]; ethanol, room temperature, read-out: Solubility (amount of solid in mL of solvent)", "value": 376, "unit": "mg/mL"}, {"measurement": "solubility", "setting": "[3]; methanol, room temperature, single trials, read-out: Solubility (amount of solid in mL of solvent)", "value": 1280, "unit": "mg/mL"}, {"measurement": "Solubility (amount of solid in mL of solvent)", "setting": "[3]; methanol, room temperature, single trials", "value": "1600 mg/mL and 1530 mg/mL"}, {"measurement": "solubility", "setting": "[3]; methanol, room temperature, read-out: Average Solubility", "value": 1470, "unit": "mg/mL"}, {"measurement": "aqueous solubility relative to topiramate", "setting": "[3]; vs. literature value of […]", "value": "over 100 times"}, {"measurement": "solubility", "setting": "[3]; water, FIG. 6, read-out: aqueous solubility", "value": 1300, "unit": "mg/mL"}, {"measurement": "solubility", "setting": "[3]; water, room temperature, single trials, read-out: Solubility (amount of solid in mL of solvent)", "value": 1240, "unit": "mg/mL"}, {"measurement": "Solubility (amount of solid in mL of solvent)", "setting": "[3]; water, room temperature, single trials", "value": 1435, "unit": "mg/mL"}, {"measurement": "solubility", "setting": "[3]; water, room temperature, read-out: Average Solubility", "value": 1330, "unit": "mg/mL"}, {"measurement": "chemical degradation by HPLC", "setting": "[4]; 2 weeks at 25° C./<5% RH, 25° C./31% RH, 25° C./75% RH, 40° C./ambient RH, or 40° C./75% RH", "value": "No chemical degradation"}, {"measurement": "chemical degradation by HPLC", "setting": "[4]; >12 weeks at 25° C./<5% RH, 25° C./31% RH, 25° C./75% RH, or 40° C./75% RH", "value": "No chemical degradation"}, {"measurement": "chemical degradation by HPLC", "setting": "[4]; stored at or above 60° C. for at least 2 weeks", "value": "Degradates were observed"}, {"measurement": "solubility at the equilibrium condition relative to (1) and (3)", "setting": "[5]", "value": "increased solubility"}, {"measurement": "state at the end of the dissolution experiment", "setting": "[5]; listed as topiramate sodium salt trihydrate, sodium trihydrate", "value": "not saturated"}, {"measurement": "pH at the equilibrium condition", "setting": "[5]; [9]", "value": 9.5}, {"measurement": "Physical stability result (solid form)", "setting": "[6]; 5 °C, ambient RH (refrigerated)", "value": "Trihydrate"}, {"measurement": "Physical stability result (solid form)", "setting": "[6]; 25 °C, 31% RH", "value": "Trihydrate"}, {"measurement": "Physical stability result (solid form)", "setting": "[6]; 25 °C, 75% RH", "value": "Trihydrate"}, {"measurement": "Physical stability result (solid form)", "setting": "[6]; 25 °C, <5% RH", "value": "Trihydrate & some amorphous"}, {"measurement": "Physical stability result (solid form)", "setting": "[6]; 40 °C, 75% RH", "value": "Trihydrate"}, {"measurement": "Physical stability result (solid form)", "setting": "[6]; 40 °C, ambient RH (<20)", "value": "Trihydrate"}, {"measurement": "Physical stability result (solid form)", "setting": "[6]; 60 °C, ambient RH (<10)", "value": "Amorphous"}, {"measurement": "Physical stability result (solid form)", "setting": "[6]; 80 °C, ambient RH (<5)", "value": "Amorphous"}, {"measurement": "temperature up to which the hydrate stays intact", "setting": "[6]; by TGA", "value": "≤ 40", "unit": "°C"}]}
{"smiles": "CC1(C)O[C@@H]2[C@@H](CO[C@@]3(COS(N)(=O)=O)OC(C)(C)O[C@@H]23)O1", "note": "[topiramate, 2,3:4,5-Di-O-isopropylidene-β-D-fructopyranose sulfamate]", "values": [{"measurement": "blocking kindled seizures", "setting": "kindled seizures", "value": "effective in blocking kindled seizures"}, {"measurement": "time to reach peak plasma levels", "setting": "[7]", "value": "about two"}, {"measurement": "solubility in acetone, chloroform, dimethylsulfoxide, and ethanol", "setting": "[8]", "value": "freely soluble"}, {"measurement": "state at the end of the dissolution experiment", "setting": "[5]; listed as topiramate crystal form", "value": "remained as suspensions"}, {"measurement": "time at which dissolution was essentially complete", "setting": "[5]; [9]", "value": 5, "unit": "min"}]}
